Measurements as given in paper PMC7383220 (BioFactors (Oxford, England), 2018).
Each block holds one molecule with its values, some of them ahead of it.

Key:
HeLa1A1 cells = assay: BDMC-O-glucuronide excretion experiments in HeLa1A1 cells; format: cell-based, human; settings: inhibitor 5 and 20 μM, 5 μM BDMC, versus control
UGT1A1 [1] = molecular target: T1, UGT1A1 (Homo sapiens, UniProt P22309); format: biochemical; settings: inhibitor 5 and 20 μM
T1 sequence (P22309 26-533): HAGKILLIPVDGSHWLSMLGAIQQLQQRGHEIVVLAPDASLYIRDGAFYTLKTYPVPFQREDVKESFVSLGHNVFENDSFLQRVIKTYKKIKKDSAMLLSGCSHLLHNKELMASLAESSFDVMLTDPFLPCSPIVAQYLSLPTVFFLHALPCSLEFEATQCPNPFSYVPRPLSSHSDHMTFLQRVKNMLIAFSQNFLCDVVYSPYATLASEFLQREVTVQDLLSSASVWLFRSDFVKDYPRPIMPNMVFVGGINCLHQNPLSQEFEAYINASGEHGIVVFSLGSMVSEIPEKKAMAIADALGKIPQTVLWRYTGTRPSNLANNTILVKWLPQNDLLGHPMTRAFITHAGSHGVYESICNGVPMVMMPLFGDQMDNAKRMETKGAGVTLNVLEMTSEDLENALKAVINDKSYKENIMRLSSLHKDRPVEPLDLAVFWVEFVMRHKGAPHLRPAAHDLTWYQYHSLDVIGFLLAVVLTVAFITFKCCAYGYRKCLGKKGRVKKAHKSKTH

BCRP [2] = settings: read-out: IC50 as BCRP inhibitor; cited from earlier work
HeLa1A1 cell lysate = molecular target: T2, HeLa1A1 cell lysate (Homo sapiens, UniProt P22309); format: biochemical; settings: inhibitor 5 and 20 μM
T2 sequence (P22309 26-533): T1 sequence (P22309 26-533)

UGT1A1 [3] = molecular target: T1, UGT1A1; assay: Glucuronidation kinetics by HeLa1A1 cell lysate; settings: human, HeLa1A1 cell lysate (HeLa cells expressing UGT1A1), pH 7.4
[4] = orally administered; cited from earlier work
UGT1A1 [5] = molecular target: T1, UGT1A1; assay: Glucuronidation kinetics by expressed UGT1A1; settings: human, recombinant UGT1A1, pH 7.4
aldoketo reductase 1B10 = settings: read-out: Ki against aldoketo reductase 1B10; tumor marker; cited from earlier work
Hela cells = assay: Toxicity of BDMC on Hela cells; format: cell-based, human; settings: within experimental concentration (maximal 8 μM)
[6] = estimated from in vivo metabolism of curcumin and demethoxycurcumin; cited from earlier work
BCRP [7] = settings: read-out: Ki as BCRP inhibitor in vitro; cited from earlier work

Structure (SMILES): COc1ccc2c3c([nH]c2c1)[C@H](CC(C)C)N1C(=O)[C@H](CCC(=O)OC(C)(C)C)NC(=O)[C@@H]1C3 [Ko143]
- Increase of intracellular levels of BDMC-O-glucuronide (HeLa1A1 cells; cells collected at 2 h): 28.8–48.1%
- Decrease of BDMC-O-glucuronide excretion (HeLa1A1 cells): 18.4–55.6%
- Effect on glucuronidation of BDMC by UGT1A1 enzyme (UGT1A1 [1]): inhibit
- Effect on glucuronidation of BDMC by HeLa1A1 cell lysate (HeLa1A1 cell lysate): inhibit

- microsomal CLint (UGT1A1 [3]): 164 ± 19.8 µL/min/mg
- microsomal CLint (UGT1A1 [5]): 235 ± 34.5 µL/min/mg
Structure (SMILES): O=C(/C=C/c1ccc(O)cc1)CC(=O)/C=C/c1ccc(O)cc1 [BDMC, Bisdemethoxycurcumin]
- Glucuronide in general blood circulation [4]: Approximately 50 nM
- Glucuronide/sulfate conjugates in general blood circulation [4]: about 10 nM
- Ki (aldoketo reductase 1B10): 22 nM
- Toxicity on Hela cells (Hela cells): no significant toxicities
- Fraction of ingested compound excreted in feces without absorption [6]: over 75%

Structure (SMILES): COc1cc(/C=C/C(=O)CC(=O)/C=C/c2ccc(O)c(OC)c2)ccc1O [curcumin]
- Ki (BCRP [7]): 700 ± 410 nM
